Laboratory results reported in patent US8748466B2, “Isoxazole derivatives useful as antibacterial agents” (Pfizer Inc., priority 2011, dated 2014).
≈ marks a conversion by molar mass, not a printed value. Where two headings read alike, the source gives them in different places.

What was measured:
[1] = tested on: Escherichia coli EC-1: VOGEL, mouse virulent; assay: MIC determination (CLSI), EC-1; assay type: cell-based; settings: read-out: EC-1 MIC
Description: (§1) The in vitro antibacterial activity of compounds described in the Examples was evaluated by minimum inhibitory concentration (MIC) testing according to Clinical and Laboratory Standards Institute (CLSI). See: Clinical and Laboratory Standards Institute. Methods for Dilution Antimicrobial Susceptibility Tests for Bacteria that Grow Aerobically; Approved Standard-Eighth Edition. CLSI document M7-A8 [ISBN 1-56238-689-1]. Clinical and Laboratory Standards Institute, 940 West Valley Road, Suite 1400, Wayne, Pa. 19087-1898 USA, 2006; also Clinical and Laboratory Standards Institute. Performance Standards for Antimicrobial Susceptibility Testing; Twentieth Informational Supplement. CLSI document M100-S20 [ISBN1-56238-716-2]. Clinical and Laboratory Standards Institute.
(§2) The MIC determination is a standard laboratory method for evaluating the antibacterial activity of a compound. The MIC represents the lowest drug concentration that inhibits visible growth of bacteria following overnight incubation. […] Typically, the drug concentration range is broken down into 2-fold increments (e.g., 0.06 μg/mL, 0.12 μg/mL. 0.25 μg/mL, 0.50 μg/mL, 1.0 μg/mL, etc.) and the various drug concentrations are all individually incubated overnight with approximately the same number of bacteria. The MIC is then determined by visually inspecting the drug effect at each concentration, and identifying the lowest drug concentration that has inhibited bacterial growth as compared to the drug free control. Typically, bacteria continue to grow at drug concentrations lower than the MIC and don't grow at concentrations at and above the MIC.
(§3) The MIC values described in Tables 4 and 5 below were derived from assays wherein each test compound was evaluated in duplicate. In cases where the duplicate values varied by 0-2-fold, the lower of the two values was reported below. Generally speaking, if the duplicate values varied by more than 2-fold, the assay was considered non-valid and was repeated until the variation between duplicate runs was 2-fold. In line with the CLSI guidelines referred to above, both control organisms and reference compounds were utilized in each MIC assay to provide proper quality control. MIC values generated with these control organisms and reference compounds were required to fall within a defined range for the assay to be considered valid and be included herein. Those skilled in the art will recognize that MIC values can and do vary from experiment to experiment. Generally speaking, it should be recognized that MIC values often vary +/−2-fold from experiment to experiment. While a single MIC is reported for each compound and each microorganism, the reader should not conclude that each compound was only tested once. Several of the compounds were subjected to multiple tests. The data reported in Tables 4 and 5 is reflective of the compound's relative activity and different MICs may have been generated on these occasions in line with the guidelines described above.
(§4) The following bacterial strains were used in these MIC determinations:
2) Escherichia coli EC-1: VOGEL, mouse virulent labeled as EC-1 in Tables 4 and 5;

[2] = target: T1, Pseudomonas aeruginosa LpxC enzyme (Pseudomonas aeruginosa, UniProt P47205); assay: LpxC enzyme IC50 assay (PA LpxC enzyme IC50), BioTrove RapidFire mass spectrometry; assay type: biochemical
T1 construct: made in house; host or cells: E. coli
T1 sequence (P47205 1-303): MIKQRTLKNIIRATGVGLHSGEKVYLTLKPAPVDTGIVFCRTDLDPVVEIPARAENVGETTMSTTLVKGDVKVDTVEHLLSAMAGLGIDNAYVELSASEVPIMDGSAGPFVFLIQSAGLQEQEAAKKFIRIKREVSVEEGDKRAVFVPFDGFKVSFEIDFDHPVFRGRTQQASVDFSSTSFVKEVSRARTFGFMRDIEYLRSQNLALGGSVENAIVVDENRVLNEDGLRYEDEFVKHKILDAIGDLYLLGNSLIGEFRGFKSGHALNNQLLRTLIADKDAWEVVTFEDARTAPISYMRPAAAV
Description: In order to assess the compounds biological activity selected in vitro assays were conducted on selected compounds. One of the assays measured the compounds ability to disrupt the synthesis of lipopolysaccharide, LPS, which is a component of the outer membrane of Gram-negative bacteria. Disruption of this synthesis is lethal to the bacteria. The assay determined the compound's ability to inhibit LpxC, which is the first enzyme in the biosynthetic pathway for LPS (measured as IC50). Additionally, MICs (minimal inhibitory concentrations) were determined for several bacteria. The specific protocols are described below:
A) IC50 Assay LpxC Enzyme from P. aeruginosa Labeled as PA LpxC Enzyme IC50):
At the end of 1 hour, 5 ul of 1 N HCl was added to stop the enzyme reaction, the plates were centrifuged, and then processed with the BioTrove Rapidfire HTMS Mass Spectrometry System. A no-enzyme control was used in calculating the IC50 values from the percent conversion values.

[3] = tested on: Pseudomonas aeruginosa UC12120 (mouse virulent); assay: MIC determination (CLSI), PA-UC12120; assay type: cell-based; settings: UC12120, read-out: PA-UC12120 MIC
Description: as §1, §2, §3, §4
1) Pseudomonas aeruginosa UC12120 (mouse virulent) labeled as PA-UC12120 in Tables 4 and 5;

[4] = tested on: Acinetobacter baumannii/haemolyticus: Multidrug-resistant clinical isolate AB-3167; assay: MIC determination (CLSI), AB-3167; assay type: cell-based; settings: overnight incubation, duplicate, lower of the two values reported
Description: as §1, §2, §3, §4
3) Acinetobacter baumannii/haemolyticus: Multidrug-resistant clinical isolate labeled as AB-3167 in Tables 4 and 5;

[5] = P. aeruginosa LpxC enzyme 0.1 nM, 25° C., 1 hour, pH 8.0, read-out: PA:IC50

Compound | MIC [1] | IC50 [2] | MIC [3] | MIC [4] | IC50 [2, 5]
COc1cccc(-c2cc(CC[C@](C)(C(=O)NO)S(C)(=O)=O)on2)c1F [Example 1, (2R)-4-[3-(2-Fluoro-3-methoxyphenyl)isoxazol-5-yl]-N-hydroxy-2-methyl-2-(methylsulfonyl)butanamide] | 4 µg/mL (≈ 10.4 µM) | 5.32 nM | 2 µg/mL (≈ 5.18 µM) | > 64 µg/mL | 
CCCCNC(=O)OCc1cc(CCC(C)(C(=O)NO)S(C)(=O)=O)no1 (racemic) [Example 25, {3-[4-(hydroxyamino)-3-methyl-3-(methylsulfonyl)-4-oxobutyl]isoxazol-5-yl}methyl butylcarbamate] | > 64 µg/mL |  | > 64 µg/mL | > 64 µg/mL | > 100 nM
CC(CCc1cc(CC2(O)CCCCC2)on1)(C(=O)NO)S(C)(=O)=O (racemic) [Example 17, N-hydroxy-4-{5-[(1-hydroxycyclohexyl)methyl]isoxazol-3-yl}-2-methyl-2-(methylsulfonyl)butanamide] | > 64 µg/mL |  | > 64 µg/mL | > 64 µg/mL | > 100 nM
CCCCSC(=O)N(C)Cc1cc(CCC(C)(C(=O)NO)S(C)(=O)=O)no1 (racemic) [Example 14, S-butyl ({3-[4-(hydroxyamino)-3-methyl-3-(methylsulfonyl)-4-oxobutyl]isoxazol-5-yl}methyl)methylthiocarbamate] | > 64 µg/mL |  | > 64 µg/mL | > 64 µg/mL | > 100 nM
CC(CCc1cc(-c2c(Cl)cccc2Cl)on1)(C(=O)NO)S(C)(=O)=O (racemic) [Example 10, 4-[5-(2,6-dichlorophenyl)isoxazol-3-yl]-N-hydroxy-2-methyl-2-(methylsulfonyl)butanamide] | 8 µg/mL (≈ 19.6 µM) |  | 64 µg/mL (≈ 157 µM) | > 64 µg/mL | 10.5 nM
COc1ccccc1-c1cc(CCC(C)(C(=O)NO)S(C)(=O)=O)on1 (racemic) [Example 49, N-hydroxy-4-[3-(2-methoxyphenyl)isoxazol-5-yl]-2-methyl-2-(methylsulfonyl)butanamide] | > 64 µg/mL |  | 32 µg/mL (≈ 86.9 µM) | > 64 µg/mL | 42.4 nM
Cc1cc(-c2cc(CCC(C)(C(=O)NO)S(C)(=O)=O)no2)ccc1OC(F)F (racemic) [Example 22, 4-{5-[4-(difluoromethoxy)-3-methylphenyl]isoxazol-3-yl}-N-hydroxy-2-methyl-2-(methylsulfonyl)butanamide] | 8 µg/mL (≈ 19.1 µM) |  | 1 µg/mL (≈ 2.39 µM) | > 64 µg/mL | 1.5 nM
COc1ccccc1OCc1cc(CCC(C)(C(=O)NO)S(C)(=O)=O)no1 (racemic) [Example 12, N-hydroxy-4-{5-[(2-methoxyphenoxy)methyl]isoxazol-3-yl}-2-methyl-2-(methylsulfonyl)butanamide] | > 64 µg/mL |  | > 64 µg/mL | > 64 µg/mL | 37.4 nM
CCc1ccc(-c2cc(CCC(C)(C(=O)NO)S(C)(=O)=O)on2)s1 (racemic) [Example 7, 4-[3-(5-ethyl-2-thienyl)isoxazol-5-yl]-N-hydroxy-2-methyl-2-(methylsulfonyl)butanamide] | 4 µg/mL (≈ 10.7 µM) |  | 0.5 µg/mL (≈ 1.34 µM) | 64 µg/mL (≈ 172 µM) | 1.1 nM
